Measurements taken from patent US20260174716A1, “CRYSTAL FORM OF ALKYL CARBOXYLIC ACID COMPOUND AND USE THEREOF” (CONSUN PHARMACEUTICAL (INNER MONGOLIA) CO. LTD, priority 2022, published 2026).
Each block holds one molecule with its values, some of them ahead of it.

Columns and labels:
sGC = molecular target: T1, sGC (Homo sapiens, UniProt Q02153); test: cGMP expression test based on LNCap cells (HTRF, with ODQ); assay type: cell-based
T1 construct: Minimum effective concentration required to stimulate cGMP production in LNCap cells; endogenous in cells; host or cells: LNCaP cells (no transfection described)
T1 sequence (Q02153 1-619): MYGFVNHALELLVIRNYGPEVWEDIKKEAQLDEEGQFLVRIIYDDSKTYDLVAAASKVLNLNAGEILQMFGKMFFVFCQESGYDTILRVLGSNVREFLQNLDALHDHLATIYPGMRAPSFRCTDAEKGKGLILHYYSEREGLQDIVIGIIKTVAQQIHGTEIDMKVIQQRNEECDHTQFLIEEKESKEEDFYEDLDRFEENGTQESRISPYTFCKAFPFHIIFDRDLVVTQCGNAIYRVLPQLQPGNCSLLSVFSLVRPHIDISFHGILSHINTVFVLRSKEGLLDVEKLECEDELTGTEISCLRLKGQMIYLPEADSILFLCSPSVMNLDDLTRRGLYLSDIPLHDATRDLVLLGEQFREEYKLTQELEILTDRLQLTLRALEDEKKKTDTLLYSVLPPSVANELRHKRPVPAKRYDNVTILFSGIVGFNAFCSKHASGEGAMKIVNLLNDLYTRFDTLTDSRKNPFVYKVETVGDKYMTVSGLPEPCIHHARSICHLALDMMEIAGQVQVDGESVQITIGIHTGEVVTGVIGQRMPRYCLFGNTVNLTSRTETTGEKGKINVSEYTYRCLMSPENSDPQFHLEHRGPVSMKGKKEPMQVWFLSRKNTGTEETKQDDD
T1 sequence (Q02108 1-690 partner): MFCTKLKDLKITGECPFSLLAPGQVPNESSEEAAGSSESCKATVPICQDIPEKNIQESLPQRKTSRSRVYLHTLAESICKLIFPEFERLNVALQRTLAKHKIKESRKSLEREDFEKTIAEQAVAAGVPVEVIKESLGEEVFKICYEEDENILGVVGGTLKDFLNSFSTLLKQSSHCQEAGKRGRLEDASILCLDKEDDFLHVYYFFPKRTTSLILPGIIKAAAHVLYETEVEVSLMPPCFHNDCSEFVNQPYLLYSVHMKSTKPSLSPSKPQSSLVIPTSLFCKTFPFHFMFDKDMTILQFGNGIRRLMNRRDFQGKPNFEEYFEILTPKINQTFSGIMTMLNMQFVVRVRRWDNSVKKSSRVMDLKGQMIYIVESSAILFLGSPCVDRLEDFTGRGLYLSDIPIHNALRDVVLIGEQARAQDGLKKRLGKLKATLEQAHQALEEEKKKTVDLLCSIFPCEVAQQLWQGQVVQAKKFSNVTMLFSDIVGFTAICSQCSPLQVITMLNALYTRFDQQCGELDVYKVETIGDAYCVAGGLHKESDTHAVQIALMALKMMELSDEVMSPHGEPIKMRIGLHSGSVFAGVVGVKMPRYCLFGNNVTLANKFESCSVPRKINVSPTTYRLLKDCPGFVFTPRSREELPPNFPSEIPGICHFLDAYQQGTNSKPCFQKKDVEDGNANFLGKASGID
Method: I. CGMP Expression Test Based on InCap Cells
10 g of BSA was dissolved in 100 mL of double-distilled water (ddH2O) to obtain 10% BSA.
1 mg of ODQ powder was weighed and dissolved in 534 μL of DMSO to prepare 10 mM ODQ solution. The solution was aliquoted and stored in a −20° C. refrigerator.
• a) 50 μL of cGMP-D2 (D2-labeled cyclic guanosine monophosphate) was added to 1 mL of lysis buffer and mixed thoroughly. • b) 50 μL of anti-cGMP cryptate (Eu^3+ cryptate-labeled anti-cyclic guanosine monophosphate antibody) was added to 1 mL of lysis buffer and mixed thoroughly.
• (1) The compound was diluted to a concentration of 10 mM using DMSO. • (2) A serial dilution of the compound was performed, resulting in 10 different concentration levels of each compound. […]
• (1) cGMP-D2 was transferred to a 384-well plate at 5 μL per well. […] Centrifugation was performed at 1500 rpm for 1 minute. • (2) Incubation was carried out at room temperature for 1 hour. • (3) The plates were read using envision at 665/615 wavelengths.
• (1) cGMP standard curve: A standard curve was generated using GraphPad Prism, based on the ratio of cGMP concentration to the 665/615 wavelength values. • (2) Conversion of HTRF (homogeneous time-resolved fluorescence) ratio (665/615) to cGMP concentration: In GraphPad Prism, the HTRF ratio (665/615) was copied to the ratio column of the cGMP standard curve. […]

[1] = Solid stability test (XRPD detection of crystal form); assay type: physicochemical
Source text: For samples placed under high temperature and high humidity conditions, the vial was sealed with aluminum foil punched with small holes to ensure that the samples were in full contact with the ambient air; for samples placed under strong light conditions, the vial was sealed with a threaded cap. The samples placed under different conditions were sampled and detected (XRPD) on day 5, day 10, and month 1, and the results were compared with the initial results on day 0.

[2] = In vitro hepatocyte metabolic stability, mouse; assay type: in vitro ADME; conditions: hepatocytes (cryopreserved, suspension), 0.5×10^6 cells/mL
Method: (§1) • 1. Experimental objective: The aim of the study was to assess the stability of the compounds in hepatocytes of different species. • 2. Experimental steps:
(§2) A variety of 96-well precipitation plates were prepared and labeled as T0, T15, T30, T60, T90, T0-MC, T90-MC, and blank matrix, respectively. Revival medium and incubation medium were taken in advance and pre-warmed in a 37° C. water bath. Hepatocytes of different species, stored in a liquid nitrogen tank, were taken and immediately immersed in a 37° C. water bath for approximately 90 seconds. Once partially thawed, cells were transferred to centrifuge tubes containing 40 mL of revival medium, and gently inverted to resuspend the cells in the revival medium. At room temperature, cells were centrifuged at 100×g for 5 minutes. The supernatant was discarded, and the hepatocytes were resuspended in an appropriate volume of incubation medium. Viability was calculated using trypan blue staining. 198 μL of hepatocyte suspension (0.51×10^6 cells/mL) was added to pre-warmed incubation plates. For the control group, 198 μL of hepatocyte-free incubation medium was added to T0-MC and […] plates. All plates were pre-incubated for 10 minutes in a 37° C. incubator. […] All samples were mixed well and analyzed using LC/MS/MS methods.

[3] = In vitro hepatocyte metabolic stability, rat; assay type: in vitro ADME; conditions: hepatocytes (cryopreserved, suspension), 0.5×10^6 cells/mL
Method: as §1, §2

[4] = In vitro hepatocyte metabolic stability, human; assay type: in vitro ADME; conditions: hepatocytes (cryopreserved, suspension), 0.5×10^6 cells/mL
Method: as §1, §2

- EC50 (sGC; cGMP production in LNCap cells): 21.2 nM
- MEC (sGC; minimum effective concentration to stimulate cGMP production in LNCap cells (greater than three times the baseline value)): 6.93 nM
- Crystal form ([1]; 40° C./75% RH (open), Day 5): Crystal form A
- Crystal form ([1]; 40° C./75% RH (open), Day 10): Crystal form A
- Crystal form ([1]; 40° C./75% RH (open), Month 1): Crystal form A
- Crystal form ([1]; 60° C./75% RH (open), Day 5): Crystal form A
- Crystal form ([1]; 60° C./75% RH (open), Day 10): Crystal form A
- Crystal form ([1]; 60° C./75% RH (open), Month 1): Crystal form A
- Crystal form ([1]; Day 0 (initial)): Crystal form A
- Crystal form ([1]; High humidity (25° C./relative humidity: 92.5%, open), Day 5): Crystal form A
- Crystal form ([1]; High humidity (25° C./relative humidity: 92.5%, open), Day 10): Crystal form A
- Crystal form ([1]; High humidity (25° C./relative humidity: 92.5%, open), Month 1): Crystal form A
- Crystal form ([1]; High temperature (60° C., open), Day 5): Crystal form A
- Crystal form ([1]; High temperature (60° C., open), Day 10): Crystal form A
- Crystal form ([1]; High temperature (60° C., open), Month 1): Crystal form A
- Crystal form ([1]; Strong light (5000 lx, sealed), Day 5): Crystal form A
- Crystal form ([1]; Strong light (5000 lx, sealed), Day 10): Crystal form A
- Crystal form ([1]; Strong light (5000 lx, sealed), Month 1): Crystal form A
Compound: COC12CC([C@H](CC(=O)O)c3ccc(Cl)c(NC(=O)[C@H](c4ccc(Cl)cc4)[C@@H](C)C(F)(F)F)c3)(C1)C2

- half-life at 1 μM [2]: 1.42 h
- CLint scaled at 1 μM ([2]; read-out: CLint (liver)): 193 mL/min/kg
- half-life at 1 μM [3]: 1.3 h
- CLint scaled at 1 μM ([3]; read-out: CLint (liver)): 82.9 mL/min/kg
- half-life at 1 μM [4]: 2.58 h
- CLint scaled at 1 μM ([4]; read-out: CLint (liver)): 24.9 mL/min/kg
Compound: COC12CC([C@H](CC(=O)O)c3ccc(Cl)c(NC(=O)[C@H](c4ccc(Cl)cc4)[C@@H](C)C(F)(F)F)c3)(C1)C2 [Compound of formula (I)]
